Reference: US8648068B2, “Heterocycloalkyl-containing thienopyrimidines for pharmaceutical compositions” (Boehringer Ingelheim International GmbH, priority 2010, dated 2014)
Counter-ions that a name gives are not always drawn.

The molecules below were run against T1, human Mnk2a (Homo sapiens, UniProt Q9HBH9) (assay: Mnk2a in vitro kinase assay (indirect fluorescence polarization)). Conditions: GST-Mnk2a pre-activated with ERK2, 20 μM ATP, 30 μM substrate peptide; read-out: MNK2 IC50.
T1 construct: made in house; host or cells: E. coli BL21 (vector pGEX-4T1)
T1 sequence (Q9HBH9 whole entry): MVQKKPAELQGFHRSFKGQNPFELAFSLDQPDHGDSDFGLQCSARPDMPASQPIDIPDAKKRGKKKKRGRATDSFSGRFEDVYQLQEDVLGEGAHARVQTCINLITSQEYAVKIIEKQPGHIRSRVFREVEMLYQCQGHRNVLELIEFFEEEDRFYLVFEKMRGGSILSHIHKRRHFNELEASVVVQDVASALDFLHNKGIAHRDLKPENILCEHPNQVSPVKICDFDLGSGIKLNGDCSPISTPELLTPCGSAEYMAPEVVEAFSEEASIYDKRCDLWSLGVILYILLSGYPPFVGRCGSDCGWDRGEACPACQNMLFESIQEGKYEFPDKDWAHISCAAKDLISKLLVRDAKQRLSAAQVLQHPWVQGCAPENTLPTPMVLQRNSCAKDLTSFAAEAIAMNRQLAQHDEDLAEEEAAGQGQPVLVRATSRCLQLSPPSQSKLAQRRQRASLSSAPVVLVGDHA
Format: biochemical
Method: Inhibitory potency of compounds against Mnk1, Mnk2a and other kinases was assessed with assays based on a format known to those skilled in the art as the indirect (competitive) fluorescence polarization. The assay detection system comprises a small fluorophore-labeled phospho-peptide (termed ligand) bound to a phospho-specific antibody. The product generated by the kinase reaction competes with the ligand for antibody binding. Based on the larger molecular volume of the bound ligand, which results in a lower rotation rate in solution, its emitted light has a higher degree of polarization than the one from the free ligand.
As a source of enzyme, human Mnk1 and human Mnk2a were expressed as GST fusion proteins in E. coli, purified to >80% homogeneity by glutathione affinity chromatography and activated in vitro with pre-activated ERK2. In brief, the open reading frames of human Mnk1 and Mnk2a were amplified from cDNA using the forward/reverse primer pairs
(utilized restriction sites underlined), respectively, and cloned into the BamHI and SalI sites of the vector pGEX-4T1 (Amersham, Sweden, cat. no. 27-4580-01). These constructs allow prokaryotic expression of Mnk1 or Mnk2a as fusion protein with a N-terminal glutathione S-transferase (GST) tag, referred to as GST-Mnk1 or GST-Mnk2a. The following expression and purification procedure was identical for GST-Mnk1 and GST-Mnk2a, referring in general to GST-Mnk, when not distinguishing between the two isoforms. Expression of GST-Mnk was in E. coli BL21 (Merck Biosciences, Germany, cat. no. 69449). Cells were grown in LB-Bouillon (Merck, Germany, cat. no. 1.10285) supplemented with 100 μg/ml ampicillin (Sigma, Germany, cat. no. A9518) at 37° C. When the culture had reached a density corresponding to an A600 of 0.8, an equal volume of ice cold LB/ampicillin was added, the culture transferred to 25° C. and induced for 4 h with 1 mM isopropyl thiogalactoside (IPTG, Roth, Germany, cat. no. 2316.4). Cells harvested by centrifugation were resuspended in 10 ml lysis buffer (50 mM tris(hydroxymethyl)aminomethane hydrochloride (Tris/HCl, Sigma, Germany, cat. no. T5941) pH 7.5, 300 mM sodium chloride (NaCl, Sigma, Germany, cat. no. S7653), 5% (w/v) glycerol (Sigma, Germany, cat. no. G5516), 3 mM DTT dithiotreitol (DTT, Sigma, Germany, cat. no. D9779)) per gram wet weight cell pellet. Lysates were prepared by disruption of cells with a sonifier and subsequent clearing by centrifugation at 38000 g for 45 min at 4° C.
The lysate was applied to a GSTPrep FF 16/10 column (Amersham, Sweden, cat. no. 17-5234-01) equilibrated with lysis buffer. Removal of unbound material was with 3 column volumes (CV) lysis buffer. Elution was with 2 CV of elution buffer (50 mM Tris/HCl pH 7.5, 300 mM NaCl, 5% (w/v) glycerol, 20 mM glutathione (Sigma, Germany, cat. no. G4251)). Peak fractions were pooled and the protein transferred into storage buffer (50 mM Tris/HCl pH 7.5, 200 mM NaCl, 0.1 mM ethylene glycol-bis(2-aminoethylether)-N,N,N′,N′-tetraacetic acid (EGTA, Aldrich, Germany, cat. no. 23, 453-2), 1 mM DTT, 10% (w/v) glycerol, 0.5 M sucrose (Sigma, Germany, cat. no. SO389) by gel filtration on a PD10 desalting column (Amersham, Sweden, cat. no. 17-0851-01). Aliquots were shock frozen in liquid nitrogen and stored at −80° C.
Activation of Mnk1 and Mnk2a was at a concentration of 2.5 μM of either purified GST-Mnk1 or GST-Mnk2a by incubation with 150 nM pre-activated NHis-ERK2 (see ERK2 assay for preparation) and 50 μM adenosine triphosphate (ATP, Sigma, cat. no. A2699) in a buffer comprising 20 mM N-(2-hydroxyethyl)piperazine-N′-(2-ethanesulfonic acid) (HEPES, Fluka, Germany, cat. no 54459)/potassium hydroxide (KOH, Roth, Germany, cat. no 6751.1) pH 7.4, 10 mM magnesium chloride (MgCl2, Sigma, Germany, cat. no. M2670), 0.25 mM DTT, 0.05% (w/v) polyoxyethylene 20 stearylether (Brij 78, Sigma, Germany, cat. no. P4019) (HMDB buffer) for 45 min at 30° C. […]
Molecule `Cc1c(C(N)=O)sc2ncnc(Nc3ccc(C(F)(F)F)cc3O[C@H]3CCCNC3)c12` [Example 65, 5-Methyl-4-[2-((S)-piperidin-3-yloxy)-4-trifluoromethyl-phenylamino]-thieno[2,3-d]pyrimidine-6-carboxylic acid amide] has an IC50 of 190 nM. Molecule `Cc1c(C(=O)NCC2CCCCC2)sc2ncnc(Nc3ccc(F)cc3OC3CCCNC3)c12` (stereo not drawn) [Example 29] has an IC50 of 53 nM. Work on `Cc1c(C(N)=O)sc2ncnc(Nc3ccc(F)cc3O[C@H]3CCCN(Cc4ncon4)C3)c12` [Example 4] yielded an IC50 of 110 nM. Molecule `Cc1c(C(=O)NCC(C)(C)CN(C)C)sc2ncnc(Nc3ccc(F)cc3OC3CCOCC3)c12` [Example 154] has an IC50 of 215 nM. `Cc1c(C(=O)NC2CCCN(C(=O)OC(C)(C)C)CC2)sc2ncnc(Nc3ccc(F)cc3O[C@H]3CCOC3)c12` (stereo partly drawn) [Example 272, 4-[(4-{4-Fluoro-2-[(S)-(tetrahydro-furan-3-yl)oxy]-phenylamino}-5-methyl-thieno[2,3-d]pyrimidine-6-carbonyl)-amino]-azepane-1-carboxylic acid tert-butyl ester] was tested, and the IC50 was 40 nM. With `CCN(CC)CCCNC(=O)c1sc2ncnc(Nc3ccc(F)cc3OC3CCOCC3)c2c1C` [Example 223] the IC50 was 2290 nM. For `Cc1c(C(=O)NCC2CCCN(C)C2)sc2ncnc(Nc3ccc(F)cc3OC3CCOCC3)c12` (stereo not drawn) [Example 123], the IC50 was 38 nM. Work on `Cc1c(C(N)=O)sc2ncnc(Nc3ccc(F)cc3O[C@H]3CCCN(CCC#N)C3)c12` [Example 3] yielded an IC50 of 120 nM. `Cc1c(C(=O)NCCc2ccc(O)cc2)sc2ncnc(Nc3ccc(F)cc3OC3CCCNC3)c12` (stereo not drawn) [Example 46] showed an IC50 of 15 nM. Work on `Cc1c(C(=O)NCCC(=O)N(C)C)sc2ncnc(Nc3ccc(F)cc3OC3CCOCC3)c12` [Example 167] yielded an IC50 of 43 nM. `Cc1c(C(=O)NCCCN2CCC(O)CC2)sc2ncnc(Nc3ccc(F)cc3OC3CCOCC3)c12` [Example 253] gave an IC50 of 34 nM. Molecule `CNC(=O)CNC(=O)c1sc2ncnc(Nc3ccc(F)cc3OC3CCOCC3)c2c1C` [Example 175] has an IC50 of 50 nM. In the case of `Cc1c(C(=O)NC(C)CO)sc2ncnc(Nc3ccc(F)cc3OC3CCOCC3)c12` (stereo not drawn) [Example 156], the IC50 is reported as 50 nM. In the case of `Cc1c(C(=O)NCCc2cccnc2)sc2ncnc(Nc3ccc(F)cc3OC3CCOCC3)c12` [Example 207], the IC50 is reported as 41 nM. For `CNC(=O)CCNC(=O)c1sc2ncnc(Nc3ccc(F)cc3OC3CCOCC3)c2c1C` [Example 166], the IC50 was 37 nM. For `Cc1c(C(=O)NCCCN(C)C)sc2ncnc(Nc3ccc(F)cc3O[C@H]3CCCOC3)c12` [Example 87, 4-{4-Fluoro-2-[(S)-(tetrahydro-pyran-3-yl)oxy]-phenylamino}-5-methyl-thieno[2,3-d]pyrimidine-6-carboxylic acid (3-dimethylamino-propyl)-amide], the IC50 was 12 nM. `Cc1c(C(=O)NCCCN2CCCC2)sc2ncnc(Nc3cccnc3O[C@@H]3CCCOC3)c12` [Example 262] gave an IC50 of 53 nM. For `Cc1c(C(=O)NCCS(N)(=O)=O)sc2ncnc(Nc3ccc(F)cc3OC3CCOCC3)c12` [Example 196], the IC50 was 34 nM. `Cc1c(C(=O)NCCN2CCCC2=O)sc2ncnc(Nc3ccc(F)cc3OC3CCOCC3)c12` [Example 176] showed an IC50 of 105 nM. Molecule `Cc1c(C(=O)NC2CCN(C)C[C@@H]2O)sc2ncnc(Nc3ccc(F)cc3OC3CCOCC3)c12` (stereo partly drawn) [Example 257, 4-[4-Fluoro-2-(tetrahydro-pyran-4-yloxy)-phenylamino]-5-methyl-thieno[2,3-d]pyrimidine-6-carboxylic acid ((S)-3-hydroxy-1-methyl-piperidin-4-yl)-amide-hydrochloride] has an IC50 of 40 nM. For `Cc1c(C(=O)NCc2cnco2)sc2ncnc(Nc3ccc(F)cc3OC3CCOCC3)c12` [Example 186], the IC50 was 30 nM. `Cc1c(C(=O)NCC[S+](C)[O-])sc2ncnc(Nc3ccc(F)cc3OC3CCOCC3)c12` (stereo not drawn) [Example 238] showed an IC50 of 32 nM. `Cc1c(C(=O)NCc2cccc(F)c2)sc2ncnc(Nc3ccc(F)cc3OC3CCCNC3)c12` (stereo not drawn) [Example 35] showed an IC50 of 53 nM. `Cc1c(C(=O)NCC2CN(C)CCO2)sc2ncnc(Nc3ccc(F)cc3OC3CCOCC3)c12` (stereo not drawn) [Example 117] showed an IC50 of 22 nM. In the case of `Cc1c(C(=O)NCc2ncco2)sc2ncnc(Nc3ccc(F)cc3OC3CCOCC3)c12` [Example 187], the IC50 is reported as 27 nM. In the case of `Cc1c(C(=O)NC(C)C)sc2ncnc(Nc3ccc(F)cc3OC3CCOCC3)c12` [Example 135], the IC50 is reported as 43 nM. `Cc1c(C(=O)N[C@H]2C[C@H](N)C2)sc2ncnc(Nc3ccc(F)cc3OC3CCOCC3)c12` [Example 143] showed an IC50 of 41 nM. `Cc1c(C(=O)NCC2CCCOC2)sc2ncnc(Nc3ccc(F)cc3OC3CCOCC3)c12` (stereo not drawn) [Example 197] gave an IC50 of 28 nM. In the case of `Cc1c(C(=O)NC[C@@H]2CCC(=O)N2)sc2ncnc(Nc3ccc(F)cc3OC3CCCNC3)c12` (stereo partly drawn) [Example 51], the IC50 is reported as 160 nM. Work on `Cc1c(C(N)=O)sc2ncnc(Nc3ccc(F)cc3O[C@@H]3CCCN(CCC#N)C3)c12` [Example 82, 4-{2-[(R)-1-(2-Cyano-ethyl)-piperidin-3-yloxy]-4-fluoro-phenylamino}-5-methyl-thieno[2,3-d]pyrimidine-6-carboxylic acid amide] yielded an IC50 of 8 nM. In the case of `Cc1c(C(=O)NC2CCN(C)CC2)sc2ncnc(Nc3cccnc3OC3CCOCC3)c12` [Example 281], the IC50 is reported as 42 nM. Work on `COCCCNC(=O)c1sc2ncnc(Nc3ccc(F)cc3OC3CCOCC3)c2c1C` [Example 215] yielded an IC50 of 30 nM. With `Cc1c(C(=O)NC2CCN(C)CC2)sc2ncnc(Nc3cccnc3O[C@@H]3CCCOC3)c12` [Example 263] the IC50 was 115 nM. Work on `Cc1c(C(=O)NCCCN(C)C)sc2ncnc(Nc3cccnc3O[C@@H]3CCCOC3)c12` [Example 265] yielded an IC50 of 34 nM. `Cc1c(C(=O)NCC2CC2)sc2ncnc(Nc3ccc(F)cc3OC3CCCNC3)c12` (stereo not drawn) [Example 19] was tested, and the IC50 was 47 nM. In the case of `Cc1c(C(N)=O)sc2ncnc(Nc3ccc(F)cc3OC3CCN(C(=O)CN(C)C)C3)c12` (stereo not drawn) [Example 95, 4-{2-[1-(2-Dimethylamino-acetyl)-pyrrolidin-3-yloxy]-4-fluoro-phenylamino}-5-methyl-thieno[2,3-d]pyrimidine-6-carboxylic acid amide], the IC50 is reported as 460 nM. `Cc1c(C(N)=O)sc2ncnc(Nc3ccc(F)cc3O[C@H]3CCCN(CC(=O)N(C)C)C3)c12` [Example 2] showed an IC50 of 470 nM. `Cc1c(C(=O)NCc2ccc(Cl)c(F)c2)sc2ncnc(Nc3ccc(F)cc3OC3CCCNC3)c12` (stereo not drawn) [Example 59] showed an IC50 of 48 nM. For `Cc1c(C(=O)Nc2ccn(C)n2)sc2ncnc(Nc3ccc(F)cc3O[C@H]3CCCNC3)c12` [Example 64, 4-[4-Fluoro-2-((S)-piperidin-3-yloxy)-phenylamino]-5-methyl-thieno[2,3-d]pyrimidine-6-carboxylic acid (1-methyl-1H-pyrazol-3-yl)-amide], the IC50 was 21 nM. `Cc1c(C(=O)N[C@@H](C)C(=O)O)sc2ncnc(Nc3ccc(F)cc3OC3CCOCC3)c12` [Example 148] was tested, and the IC50 was 68 nM. `Cc1c(C(=O)NC2CCN(C)CC2)sc2ncnc(Nc3ccc(F)cc3O[C@H]3CCOC3)c12` [Example 271, 4-{4-Fluoro-2-[(S)-(tetrahydro-furan-3-yl)oxy]-phenylamino}-5-methyl-thieno[2,3-d]pyrimidine-6-carboxylic acid (1-methyl-piperidin-4-yl)-amide] gave an IC50 of 40 nM. Molecule `Cc1c(C(=O)NCCNc2ccccc2)sc2ncnc(Nc3ccc(F)cc3OC3CCCNC3)c12` (stereo not drawn) [Example 43] has an IC50 of 56 nM.
